One data set deals with Pdx1-expressing α-cells. Description: Insulin production in Pdx1-expressing α-cells of adult mice with normal β-cell mass after in vivo inhibition of insulin signaling. To be noted: in vivo administration to mice expressing Pdx1 in α-cells; FIG. 7B. Here is the method: (§1) DT (Sigma) was administrated by intra-peritoneal (i.p.) injections as previously described (Thorel et al., 2010, supra). DOX (1 mg/ml; Sigma) was added to the drinking water. S961 (Novo-Nordisk) (Vikram and Jena, 2010, Biochem Biophys Res Commun. 398(2):260-5) was injected intravenously (i.v.) twice a day at 200-nmol/kg-body weight, for 4 consecutive days. PPP (Santa-Cruz) and Wortmannin (Sigma) were injected i.p. once a day for 5 consecutive days at 10-mg/kg-body weight and 1-mg/kg-body weight, respectively. Mice received subcutaneous insulin pellets (Linbit) one week apart, if glycaemia exceeded 25 mM.
Pancreatic glucagon and insulin dosages (immunoassays), gene expression analyses by real time PCR as well as histological and morphometric analyses were performed as described (Herrera et al, 1991, Development. 113(4):1257-65; Strom et al, 2007, Development. 134(15):2719-25).
Cryostat sections were 10 μm-thick. The antibodies used were: rabbit and guinea pig anti-Pdx1 (kind gift of C. Wright, 1/5000 and 1/750 respectively), guinea pig anti-porcine insulin (DAKO, 1/400), mouse anti-porcine glucagon (1/1000), mouse anti-somatostatin (BCBC Ab1985, 1/200), rabbit anti-GFP (Molecular Probes, 1/400), rabbit anti-Cpeptide1 (BCBC Ab1044, 1/500), rabbit anti-Cpeptide2 (BCBC Ab1042, 1/500). […]

Data set [1] in a line: Peripheral action of S961 administered in vivo (glycemia). To be noted: data not shown. Details: species or system mice. Here is the method: as §1
To test whether insulin deprivation in absence of β-cell loss can prime α-cells to insulin production, adult mice in which α-cells express Pdx1 (cPdx1OE) were treated with an insulin receptor antagonist, termed S961 (Novo Nordisk), to blunt insulin signaling in peripheral tissues as well as in pancreatic islets (FIG. 7A).
A 5-day treatment to healthy adult mice having a normal β-cell mass led to insulin production in some 18% of Pdx1-expressing α-cells (FIG. 7B). […] Next, the insulin receptor was conditionally inactivated in adult α-cells to assess whether local inhibition of insulin signaling, exclusively at the level of α-cells, is sufficient to prime those cells to insulin production. […]

A further data set has as its target T1, insulin receptor (Rattus norvegicus, UniProt P15127).
T1 construct: host or cells: rats, in vivo (endogenous receptor)
The following applies: Vikram and Jena, 2010; cited from earlier work.

This is an account of results in US20160067212A1, “USE OF INSULIN SIGNALING ANTAGONISTS, OPTIONALLY IN COMBINATION OF TRANSFECTION OF NON-BETA CELLS, FOR INDUCING INSULIN PRODUCTION” (UNIVERSITE DE GENEVE, priority 2013, published 2016).

Entries after “also recorded” stand apart in the source; their conditions may differ. Bridges are numbered along the chain shown (N, C = ends). Where no end group is shown, it is not given here.

T1 sequence (P15127 27-759 limits assumed): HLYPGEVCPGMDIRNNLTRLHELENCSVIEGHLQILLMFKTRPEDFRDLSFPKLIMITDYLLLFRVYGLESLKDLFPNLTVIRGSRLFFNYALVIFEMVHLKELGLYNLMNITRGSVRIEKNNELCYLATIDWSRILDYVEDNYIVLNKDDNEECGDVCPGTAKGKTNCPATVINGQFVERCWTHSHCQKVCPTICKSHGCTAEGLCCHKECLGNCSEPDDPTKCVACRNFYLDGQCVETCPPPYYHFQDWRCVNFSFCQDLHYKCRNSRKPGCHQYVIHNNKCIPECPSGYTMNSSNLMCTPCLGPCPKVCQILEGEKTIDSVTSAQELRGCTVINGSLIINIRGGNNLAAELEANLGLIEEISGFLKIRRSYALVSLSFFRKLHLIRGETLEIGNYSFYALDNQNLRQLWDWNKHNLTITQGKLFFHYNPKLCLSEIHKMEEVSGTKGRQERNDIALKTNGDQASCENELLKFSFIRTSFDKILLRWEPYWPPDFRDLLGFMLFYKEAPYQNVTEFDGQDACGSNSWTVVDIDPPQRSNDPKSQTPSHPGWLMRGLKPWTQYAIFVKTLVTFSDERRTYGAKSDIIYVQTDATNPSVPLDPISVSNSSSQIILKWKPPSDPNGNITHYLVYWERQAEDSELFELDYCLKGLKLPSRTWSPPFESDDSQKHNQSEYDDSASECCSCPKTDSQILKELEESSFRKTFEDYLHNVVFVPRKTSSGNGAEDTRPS
T1 sequence (P15127 764-1383 partner limits assumed): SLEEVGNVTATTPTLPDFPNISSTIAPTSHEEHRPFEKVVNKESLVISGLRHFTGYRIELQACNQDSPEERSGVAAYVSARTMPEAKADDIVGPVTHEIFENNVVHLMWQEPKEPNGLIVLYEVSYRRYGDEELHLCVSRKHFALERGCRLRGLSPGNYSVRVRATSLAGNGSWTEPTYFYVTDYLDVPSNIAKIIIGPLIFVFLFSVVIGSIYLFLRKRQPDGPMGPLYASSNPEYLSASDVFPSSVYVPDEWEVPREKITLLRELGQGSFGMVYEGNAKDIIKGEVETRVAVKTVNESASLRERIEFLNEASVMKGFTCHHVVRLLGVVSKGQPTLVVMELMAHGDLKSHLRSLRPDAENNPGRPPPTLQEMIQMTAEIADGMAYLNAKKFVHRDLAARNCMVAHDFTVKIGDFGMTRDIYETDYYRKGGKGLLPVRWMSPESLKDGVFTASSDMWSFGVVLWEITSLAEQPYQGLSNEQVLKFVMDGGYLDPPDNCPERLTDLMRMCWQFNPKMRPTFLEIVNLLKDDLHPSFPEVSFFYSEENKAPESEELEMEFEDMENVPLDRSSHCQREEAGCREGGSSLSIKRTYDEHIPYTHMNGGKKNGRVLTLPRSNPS

With `COC[C@H]1OC(=O)c2coc3c2[C@@]1(C)C1=C(C3=O)[C@@H]2CCC(=O)[C@@]2(C)C[C@H]1OC(C)=O` [wortmannin], the “insulin production triggered in Pdx1-expressing α-cells (in words)” value in the data set on Pdx1-expressing α-cells is on record as “triggers insulin production with similar efficiency; also recorded: produce insulin”.

“GSLDESFYDWFERQLGGGSGGSSLEEEWAQIQCEVWGRGCPSY (disulfide 33-40) [S961]”: in data set [1], the “effect on glycemia when administered in vivo” value is “induces hyperglycemia”. Besides, on insulin receptor, the “effects of S961 in rats” value is “hyperglycemia, hyperinsulinemia, insulin-resistance and depletion of energy stores”.
